Assay [1] addresses T1, EGFr isolated from solubilised A431 cell membranes (Homo sapiens, UniProt P00533).
T1 construct: EGFr isolated from solubilised A431 cell membranes; endogenous in cells; host or cells: A431 cells (solubilised membranes)
As to the kind of experiment: Substrate phosphorylation assay, EGFr. It counts as biochemical. Particulars: 30 minutes, room temperature, ATP and peptide at Km. The method, then: (§1) The substrate phosphorylation assays use baculovirus expressed, recombinant constructs of the intracellular domains of c-erbB-2 and c-erbB4 that are constitutively active and EGFr isolated from solubilised A431 cell membranes. The method measures the ability of the isolated enzymes to catalyse the transfer of the γ-phosphate from ATP onto tyrosine residues in a biotinylated synthetic peptide (Biotin-GluGluGluGluTyrPheGluLeuVal). The enzyme is incubated for 30 minutes, at room temperature, with 10 mM […], ATP and peptide at Km concentrations, and test compound (diluted from a 5 mM stock in DMSO, final DMSO concentration is 2%) in 40 mM HEPES buffer, pH 7.4. The reaction is stopped by the addition of EDTA (final concentration 0.15 mM) and a sample is transferred to a streptavidin-coated 96-well plate. The plate is washed and the level of phosphotyrosine on the peptide is determined using a Europium-labelled antiphosphotyrosine antibody and quantified with a time-resolved fluorescence technique. The results are shown in Table 1 as the IC50 values in nM.

Assay [2] addresses T2, c-erbB-2 (baculovirus expressed, recombinant intracellular domain) (Homo sapiens, UniProt P04626).
T2 construct: recombinant constructs of the intracellular domains of c-erbB-2 and c-erbB4 that are constitutively active; made in house
As to the kind of experiment: Substrate phosphorylation assay, c-erbB-2. In kind it is biochemical. The following applies: 30 minutes, room temperature, ATP and peptide at Km. On the procedure:
The substrate phosphorylation assays use baculovirus expressed, recombinant constructs of the intracellular domains of c-erbB-2 and c-erbB4 that are constitutively active and EGFr isolated from solubilised A431 cell membranes. […] The reaction is stopped by the addition of EDTA (final concentration 0.15 mM) and a sample is transferred to a streptavidin-coated 96-well plate. The plate is washed and the level of phosphotyrosine on the peptide is determined using a Europium-labelled antiphosphotyrosine antibody and quantified with a time-resolved fluorescence technique. The results are shown in Table 1 as the IC50 values in nM.

The target in assay [3] is T3, c-erbB4 (baculovirus expressed, recombinant intracellular domain) (Homo sapiens, UniProt Q15303).
T3 construct: recombinant constructs of the intracellular domains of c-erbB-2 and c-erbB4 that are constitutively active; made in house
T3 sequence (Q15303 676-1308 limits assumed): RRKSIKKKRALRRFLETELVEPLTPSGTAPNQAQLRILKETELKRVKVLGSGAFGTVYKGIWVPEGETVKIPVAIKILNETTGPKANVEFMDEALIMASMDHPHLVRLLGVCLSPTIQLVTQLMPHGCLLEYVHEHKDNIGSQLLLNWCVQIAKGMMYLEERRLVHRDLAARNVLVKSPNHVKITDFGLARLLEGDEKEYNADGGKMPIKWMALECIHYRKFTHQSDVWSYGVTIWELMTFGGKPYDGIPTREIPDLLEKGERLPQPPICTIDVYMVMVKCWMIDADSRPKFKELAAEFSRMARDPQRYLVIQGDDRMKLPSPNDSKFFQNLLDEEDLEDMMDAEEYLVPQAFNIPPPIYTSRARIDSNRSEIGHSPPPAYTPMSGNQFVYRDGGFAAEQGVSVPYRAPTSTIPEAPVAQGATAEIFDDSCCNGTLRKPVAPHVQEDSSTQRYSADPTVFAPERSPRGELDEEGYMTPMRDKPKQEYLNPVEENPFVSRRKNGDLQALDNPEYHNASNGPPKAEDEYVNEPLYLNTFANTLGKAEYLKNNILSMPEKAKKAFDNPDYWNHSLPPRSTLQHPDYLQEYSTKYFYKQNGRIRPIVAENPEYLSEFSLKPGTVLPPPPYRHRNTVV
As to the kind of experiment: Substrate phosphorylation assay, c-erbB4. The following applies: 30 minutes, room temperature, ATP and peptide at Km; read-out: Substrate Phosphorylation erbB-4 IC50. In kind it is biochemical. The method, then:
as §1

Assay [4] deals with HB4a cell line transformed by over-expression of c-erbB-2. As to the kind of experiment: Cell proliferation assay, HB4a erbB-2. It counts as cell-based. Particulars: Homo sapiens, 96 h, 4 days, methylene blue staining. On the procedure:
(§2) The cell proliferation assay uses an immortalised human breast epithelial cell line (HB4a) which has been transformed by over-expression of c-erbB-2. Growth of these cells in low serum is dependent upon the c-erbB-2 tyrosine kinase activity. […] Cells are plated at 3000/well in 96-well plates in […] medium and allowed to attach overnight. test compound is added in 0.1 ml medium, with a final concentration of 0.5% DMSO, and the plates incubated for 4 days at 37° C. The cells are then examined microscopically for evidence of morphological detransformation and cell mass is estimated by staining with methylene blue and measuring the absorbance at 620 nm. […] Activity against a range of naturally occurring EGFr or c-erbB-2 over-expressing human tumour cell lines (BT474-breast, HN5-head and neck, N87 gastric and Calu3-lung) is assessed with selected compounds by the same methodology.

Assay [5] deals with HB4a cell line transfected with ras. The assay is described as follows: Cell proliferation assay, HB4a ras. In kind it is cell-based. Particulars: Homo sapiens, 96 h, 4 days, methylene blue staining, general toxicity comparison.
The test system of assay [6] is HN5-head and neck tumour cell line. As to the kind of experiment: Cell proliferation assay, HN5. In kind it is cell-based. Particulars: Homo sapiens, 96 h, read-out: Cell Proliferation HN5 IC50. The method, then: as §2
In assay [7] the test system is N87 gastric tumour cell line. The assay is described as follows: Cell proliferation assay, N87. It counts as cell-based. The following applies: Homo sapiens, 96 h; 4 days, methylene blue staining. The method, then:
as §2

Assay [8] concerns BT474-breast tumour cell line. As to the kind of experiment: Cell proliferation assay, BT474. It counts as cell-based. The following applies: Homo sapiens, BT-474, 96 h; 4 days, methylene blue staining. The method, then: as §2
In assay [9] the test system is Calu3-lung tumour cell line. As to the kind of experiment: Cell proliferation assay, Calu3. It counts as cell-based. The following applies: Homo sapiens, Calu-3, 96 h; 4 days, methylene blue staining. The method, then:
as §2

Setting [10] is: 4 days, methylene blue staining.

Structures can show the parent of a compound that is named as a salt. Where two headings read alike, the source gives them in different places.

T1 sequence (P00533 25-1210): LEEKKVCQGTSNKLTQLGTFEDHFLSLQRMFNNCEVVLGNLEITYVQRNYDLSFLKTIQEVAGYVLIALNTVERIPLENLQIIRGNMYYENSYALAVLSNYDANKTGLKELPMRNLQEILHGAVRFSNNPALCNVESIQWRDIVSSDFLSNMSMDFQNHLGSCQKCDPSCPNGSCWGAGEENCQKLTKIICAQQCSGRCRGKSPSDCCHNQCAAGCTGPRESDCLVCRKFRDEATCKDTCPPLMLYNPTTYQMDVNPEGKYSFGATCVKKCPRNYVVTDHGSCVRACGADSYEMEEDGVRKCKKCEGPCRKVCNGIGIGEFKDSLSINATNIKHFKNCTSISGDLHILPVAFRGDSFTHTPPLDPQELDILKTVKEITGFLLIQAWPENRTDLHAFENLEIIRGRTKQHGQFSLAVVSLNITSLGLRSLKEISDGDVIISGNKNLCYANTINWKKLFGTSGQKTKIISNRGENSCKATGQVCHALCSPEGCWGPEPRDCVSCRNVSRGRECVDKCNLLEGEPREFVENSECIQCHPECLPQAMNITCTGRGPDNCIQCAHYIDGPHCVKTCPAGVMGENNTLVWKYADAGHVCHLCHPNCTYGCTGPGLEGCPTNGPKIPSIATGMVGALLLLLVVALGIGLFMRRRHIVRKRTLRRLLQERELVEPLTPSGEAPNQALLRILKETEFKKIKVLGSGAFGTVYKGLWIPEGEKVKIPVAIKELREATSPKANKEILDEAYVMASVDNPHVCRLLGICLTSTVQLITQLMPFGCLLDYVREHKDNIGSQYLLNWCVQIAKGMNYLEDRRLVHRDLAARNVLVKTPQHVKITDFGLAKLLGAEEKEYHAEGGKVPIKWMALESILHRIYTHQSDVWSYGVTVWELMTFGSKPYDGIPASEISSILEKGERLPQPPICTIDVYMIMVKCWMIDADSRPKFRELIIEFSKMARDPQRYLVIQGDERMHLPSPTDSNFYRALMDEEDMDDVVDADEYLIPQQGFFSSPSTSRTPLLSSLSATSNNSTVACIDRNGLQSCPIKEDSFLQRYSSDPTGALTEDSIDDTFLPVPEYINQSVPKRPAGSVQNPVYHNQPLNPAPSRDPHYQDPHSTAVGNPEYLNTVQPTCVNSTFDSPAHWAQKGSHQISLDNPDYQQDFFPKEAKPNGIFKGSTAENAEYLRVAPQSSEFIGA
T2 sequence (P04626 676-1255 limits assumed): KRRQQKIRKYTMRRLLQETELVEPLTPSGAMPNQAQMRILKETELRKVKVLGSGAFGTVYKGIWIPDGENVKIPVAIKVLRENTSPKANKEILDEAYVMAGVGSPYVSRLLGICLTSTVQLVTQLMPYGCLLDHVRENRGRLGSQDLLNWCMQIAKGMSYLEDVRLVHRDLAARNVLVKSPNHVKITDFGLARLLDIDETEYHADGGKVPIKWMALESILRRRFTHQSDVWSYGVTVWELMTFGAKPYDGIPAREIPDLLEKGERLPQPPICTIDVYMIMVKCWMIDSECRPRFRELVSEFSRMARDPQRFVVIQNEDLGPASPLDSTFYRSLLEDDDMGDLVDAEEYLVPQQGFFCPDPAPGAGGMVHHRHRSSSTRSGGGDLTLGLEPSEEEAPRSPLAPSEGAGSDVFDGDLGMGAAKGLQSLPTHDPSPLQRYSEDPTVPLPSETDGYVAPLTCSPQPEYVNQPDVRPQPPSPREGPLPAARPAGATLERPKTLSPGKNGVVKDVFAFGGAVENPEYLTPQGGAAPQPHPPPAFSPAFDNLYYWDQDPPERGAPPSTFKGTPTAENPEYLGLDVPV

For `c1ccc(COc2ccc(Nc3ncnc4cnc(-c5ccc(CN6CCCCC6)o5)cc34)cc2)cc1` [Example 1, (4-Benzyloxy-phenyl)-(6-(5-piperidin-1-ylmethyl)-furan-2-yl)-pyrido3,4-d]pyrimidin-4-yl)-amine hydrochloride], the IC50 in assay [1] came to 170 nM; in [2], 70 nM; in [3] it was 1400 nM.
`CN1CCN(Cc2ccc(-c3cc4c(Nc5ccc(OCc6ccccc6)cc5)ncnc4cn3)o2)CC1` [Example 2, (4-Benzyloxy-phenyl)-(6-(5-(4-methyl-piperazin-1-ylmethy)-furan-2-yl)pyrido[3,4-d]pyrimidin-4-yl)-amine]: the IC50 was 170 nM in assay [1]; 60 nM in [2]; 760 nM in assay [3]; 430 nM in [4]; 2.1 µM in assay [5].
As to `CS(=O)(=O)CCNCc1ccc(-c2cc3c(Nc4ccc(OCc5ccccc5)cc4)ncnc3cn2)o1` [Example 3, 4-Benzyloxy-phenyl)-(6-(5-((2-methanesulphonyl-ethylamino)methyl)-furan-2-yl-pyrido[3,4-d]pyrimidin-4-yl)-amine hydrochloride], the IC50 in assay [1] was 140 nM; in assay [2] it was 10 nM; in [3], 190 nM; in assay [4], 500 nM; in assay [5] it was 31 µM.
Regarding `COC(=O)CNCc1ccc(-c2cc3c(Nc4ccc(OCc5ccccc5)cc4)ncnc3cn2)o1` [Example 4, ((5-4-(4-Benzloxy-phenylamino)-pyrido[3,4-d]pyrimidin-6-yl)-furan-2-ylmethyl)-amino)-acetic acid methyl ester hydrochloride], the IC50 in assay [1] worked out at 130 nM; in assay [2] it was 13 nM; in [3] it was 530 nM; in assay [4], 29000 nM; in assay [5], 16 µM.
On the same counts, the results for `c1ccc(COc2ccc(Nc3ncnc4cnc(-c5ccc(CNc6cccnc6)o5)cc34)cc2)cc1` [Example 5, (4-Benzyloxy-phenyl)-(6-(5-(pyridin-3-ylaminomethyl)-furan-2-yl)-pyrido[3,4-d]pyrimidin-4-yl)-amine] are 260 nM, 110 nM, 1600 nM, 5600 nM and 8.2 µM.
In the case of `CN(C)Cc1ccc(-c2cc3c(Nc4ccc(OCc5ccccc5)cc4)ncnc3cn2)o1` [Example 6, (4-Benzyloxy-phenyl)6-(5-(dimethyyaminomethyl)-furan-2-yl)pyrido[3,4-d]pyrimidin4-yl)-amine hydrochloride], the IC50 in [1] was determined as 380 nM; in assay [2], 98 nM; in [3], 2400 nM; in [4], 1500 nM; in assay [5] it was 2.2 µM.
Consider `NC(=O)[C@@H]1CCCN1Cc1ccc(-c2cc3c(Nc4ccc(OCc5ccccc5)cc4)ncnc3cn2)o1` [Example 7, (2S)-1-(5-(4-(4-Benzyloxy-phenylamino)-pyrido[3,4-d]pyrimidine-6-yl)-furan-2-ylmethyl)-pyrrolidine-2-carboxylic acid amide hydrochloride], for which the IC50 came out at 79 nM in assay [1]; 44 nM in assay [2]; 84 nM in assay [3]; 410 nM in [4]; 15 µM in [5].
For `CC(=O)NCCNCc1ccc(-c2cc3c(Nc4ccc(OCc5ccccc5)cc4)ncnc3cn2)o1` [Example 9], the IC50 in assay [1] was 95 nM; in [2], 7 nM; in [3], 1000 nM; in assay [4], 730 nM; in assay [5], 3.9 µM.
With `C[S+]([O-])CCNCc1ccc(-c2cc3c(Nc4ccc(OCc5ccccc5)cc4)ncnc3cn2)o1` (stereo not drawn) [Example 10, (4-Benzyloxy-phenyl)-(6-(5-((2-methanesulphinyl-ethylamino)-methyl)-furan-2-yl)-pyrido[3,4-d]pyrimidin-4-yl)-amine], the IC50 in assay [1] stood at 140 nM; in [2], 22 nM; in assay [4], 250 nM; in [5] it was 8.7 µM.
As to `O=C(O)CNCc1ccc(-c2cc3c(Nc4ccc(OCc5ccccc5)cc4)ncnc3cn2)o1` [Example 11, ((5-(4-(4-Benzyloxy-phenylamino)-pyrido[3,4-d]pyrimidine-6yl)-furan-2-ylmethyl)-amino)-acetic acid hydrochloride], the IC50 was found to be 88 nM in [1]; 19 nM in assay [2]; 450 nM in assay [3]; 50000 nM in assay [4]; 5.9 µM in assay [5].
Regarding `OCc1ccc(-c2cc3c(Nc4ccc(OCc5ccccc5)cc4)ncnc3cn2)o1` [Example 12, (5-4-(4-(4-Benzyloxy-phenylamino)-pyrido[3,4-d]pyrimidin-6-yl)-furan-2-yl)-methanol hydrochloride], the IC50 turned out to be 31 nM in [1]; 4 nM in assay [2]; 490 nM in assay [3]; 440 nM in [4]; 7.6 µM in [5]; 460 nM in assay [6].
`NC(=O)[C@H]1CCCN1Cc1ccc(-c2cc3c(Nc4ccc(OCc5ccccc5)cc4)ncnc3cn2)o1` [Example 13, (2R)-1-{5-[4-(4-Benzyloxy-phenylamino)-pyrido[3,4-d]pyrimidin-6-yl]-furan-2-ylmethyl}pyrrolidine-2-carboxalic acid amide hydrochloride]: the IC50 in [2] was 14 nM; in [3], 480 nM; in assay [4], 170 nM; in assay [5], > 50 µM; in assay [6], 350 nM.
With `CS(=O)(=O)CCCNCc1ccc(-c2cc3c(Nc4ccc(OCc5ccccc5)cc4)ncnc3cn2)o1` [Example 14], the results for the IC50 in assay [2] and in assay [3] were 420 nM and 3900 nM, respectively.
On to `CN(CCS(C)(=O)=O)Cc1ccc(-c2cc3c(Nc4ccc(OCc5ccccc5)cc4)ncnc3cn2)o1` [Example 15], for which the IC50 was 30 nM in [2], 1500 nM in [3], 300 nM in [4] and 8.5 µM in [5].
For `CN(C)C(=O)[C@@H]1CCCN1Cc1ccc(-c2cc3c(Nc4ccc(OCc5ccccc5)cc4)ncnc3cn2)o1` [Example 16, (2S)-1-{-5-[4-(4-Benzyloxy-phenylamino)-pyrido[3,4-d]pyrimidin-6-yl]-furan-2-ylmethyl}-pyrrolidine-2-carboxylic acid dimethylamide], the IC50 in assay [2] came to 280 nM; in assay [3], 2800 nM; in [4], 2100 nM; in assay [5], 7.9 µM; in assay [7], 670 nM; in assay [6] (setting [10]), 3300 nM.
Turning to `CS(=O)(=O)NCCNCc1ccc(-c2cc3c(Nc4ccc(OCc5ccccc5)cc4)ncnc3cn2)o1` [Example 17, N-(2-((5-(4-(4-Benzyloxy-phenylamino)-pyrido[3,4-d]pyrimidin-6-yl)-furan-2-ylmethyl)-amino)-ethyl)-methanesulphonamide hydrochloride], the IC50 in assay [2] stood at 29 nM; in assay [3] it was 760 nM; in [4], 250 nM; in assay [5], 3.5 µM; in [8], 100 nM; in assay [7], 150 nM. Also, the values for the IC50 in assay [9] and in assay [6] (setting [10]) were 3.7 µM and 720 nM, respectively.

These data come from patent US6207669A, “Bicyclic heteroaromatic compounds as protein tyrosine kinase inhibitors” (Glaxo Wellcome Inc., priority 1996, dated 2001).
